From patent US12458614B2, “Therapeutic agents for improved mobility and cognitive function and for treating neurodegenerative diseases and lysosomal storage disorders” (priority 2017, dated 2025)

Assays:
[1] = test system: patients with amyotrophic lateral sclerosis (ALS); assay: Case studies, amyotrophic lateral sclerosis; assay type: in vivo, human
Description: The results were documented by video.

[2] = test system: Sandhoff disease patient fibroblasts; assay: Glycosphingolipid (GSL) levels via HPLC; assay type: cell-based, human; conditions: 1 mM for 6 days
[3] = test system: patients with downbeat nystagmus; assay: Case studies, downbeat nystagmus; assay type: in vivo, human
[4] = test system: amyloid precursor protein C-terminal fragments (APP-CTFs); assay: APP-CTF levels relative to total APP in the cerebellum; assay type: in vivo, mouse; conditions: NPC1−/− mice, 0.1 g/kg body weight daily from 3 weeks, sacrificed at 8 weeks
Description: The Niemann-Pick Disease Type C (NPC) mouse model shares a number of pathological features with Alzheimer's disease (AD) as described herein. […] Mice were sacrificed at 8 weeks of age. Levels of amyloid precursor protein C-terminal fragments (APP-CTFs) were evaluated relative to total amyloid precursor protein (APP) levels in the cerebellum for wild type, untreated wild type NPC1^−/− mice, and AL-treated wild type NPC1^−/− mice. Levels of microtubule-associated protein 1A/1B-light chain 3-phosphatidylethanolamine conjugate (LC3-II) were also evaluated relative to levels of tubulin loading control for wild type, untreated wild type NPC1^−/− mice, and AL-treated wild type NPC1^−/− mice.

[5] = test system: person with postural imbalance and cognitive decline; assay: Case study Example 27; assay type: in vivo, human
Description: The patient was examined clinically by means of the following clinical assessments: maximal distance to walk; timed Up and Go test; Scale for the Assessment and Rating of Ataxia (SARA). The patient was also examined by means of posturography after 1 month of the therapy with Tanganil® 500 mg (2 g upon waking, 1.5 g prior to lunch and 1.5 g prior to the evening meal). Medication was taken 30 minutes prior to the meal, or at least 2 hours after the meal. During treatment with Tanganil® (2 g upon waking, 1.5 g prior to lunch and 1.5 g prior to the evening meal) for 1-month, the following assessments were made: […]

[6] = test system: Sandhoff disease model, Hexb−/− mouse; assay: Lifespan of Sandhoff mouse; assay type: in vivo; conditions: 0.1 g/kg from 3 weeks of age, p<0.05 vs untreated
Description: This study made use of a mouse model of Sandhoff disease, the Hexb^−/− mouse, as descrbed in Jeyakumar et al. (Jeyakumar, M. et al. (1999) Proc. Natl. Acad. Sci. USA 96: 6388-6393).
In FIG. 7A, acetyl-leucine-treated mice were treated with 0.1 g/kg acetyl-leucine from 3 weeks of age. The asterisks (*) indicates a p-value of <0.05 vs untreated Sandhoff mice. Data is average of n=6 mice per group. Without treatment, the median survival time of Sandhoff mice was 112 days. Treatment with acetyl-leucine (0.1 g/kg body weight since 3 weeks of age) increased the median lifespan to 120 days.

[7] = test system: wild-type (Npc1+/+) mice; assay: Gait analysis (CatWalk); assay type: in vivo, mouse; conditions: eight weeks of age
Description: (§1) Separate groups of Npc1^−/− and Npc1^+/+ mice were left untreated, as controls. Gait analysis was performed on mice at eight weeks of age using a CatWalk® 15.0 system according to manufacturer's instructions (Noldus, Nottingham, UK). Five runs were recorded per animal. CatWalk® parameters measured were: • 1. Stand Mean: average duration (s) of paws in contact with glass plate; • 2. Step Cycle: duration (s) between two consecutive contacts of the same paw; • 3. Duty Cycle: percentage of time paws in contact with plate compared with time to complete a step cycle; • 4. Step Sequence (AB): percentage of time spent walking in LF-RH-RF-LH alternating pattern (LF: left front; RH: right hind; RF: right front; LH left hind); • 5. Cadence: step per seconds in a trial; • 6. Diagonal Support: percentage of time with simultaneous contact of diagonal paws with the glass plate (RF&LH or RH&LF). Motor Function Analysis

[8] = test system: Npc1−/− mice; assay: Gait analysis (CatWalk); assay type: in vivo, mouse; conditions: eight weeks of age
Description: as §1

[9] = test system: NPC patients; assay: Clinical severity score (CSS) and annual severity increment score (ASIS) in ten NPC patients; assay type: in vivo, human; conditions: 4.5 g/day
Description: An NPC patient's severity may be quantified by assigning a clinical severity score (CSS), which assesses various parameters of the disease and gives each parameter a score out of 5 (higher score=greater severity). See Yanjanin et al., “Linear Clinical Progression, Independent of Age of Onset, in Niemann-Pick Disease, Type C,” Am J Med Genet Part B 153B:132-140. In an untreated patient, one can typically predict how the CSS will change over time in an individual, as disease progression appears to be linear. For example, if Patient A moves from a CSS of 8 to a CSS of 12 between month 0 and month 12, it can be predicted that by month 36, the patient will have a CSS of 20. The annual severity increment score (ASIS) quantities the annual rate of change in the CSS, calculated by dividing the CSS of a patient by the patient's age. […]
Ten NPC patients were administered acetyl-leucine at 4.5 g/day over long durations. A CSS was determined at baseline, and at various time points, for eye movement, ambulation, speech, swallow, fine motor skills, cognition, memory, and seizures. An overall CSS was calculated at baseline and at each such time point by adding the individual CSS values for each parameter (eye movement, ambulation, etc.).
The ASIS at baseline and each time point was calculated using each patient's CSS and age at the time of assessment. […]

[10] = ALS Patient 1, after a further 20 days
[11] = ALS Patient 2, after approximately 2 months
[12] = DBN Patient 1, approximately 14 weeks

For `CC(=O)NC(CC(C)C)C(=O)O` (racemic) [acetyl-DL-leucine], the Overall symptoms ([1]; ALS Patient 1) was “improvement in symptoms”, the “Speech after stopping treatment” value ([1]; ALS Patient 1, about 7 days plus 1-2 additional weeks off treatment) was “deterioration of speech” and the “Speech (patient report)” value ([1]; ALS Patient 1, after 15 days, 3 then 5 gram per day) was “significant improvement of speech”. For the same compound, the “Paresis of right foot-dorsiflexors / foot drop” value [1, 10] was “foot drop had improved dramatically”, the “Sleep (patient report)” value [1, 10] was “improvement in sleep” and the “Speech (patient report)” value [1, 10] was “further improvement of speech”. The “Symptomatology after resuming treatment” value ([1]; ALS Patient 1, second resumption) was “improved symptomatology, in particular speech”, the “Motor function of the left hand” value [1, 11] was “progredient deterioration of the motor function of the left hand” and the Swallowing functions [1, 11] was “remained stable”. For the same compound, the “Walking (patient report)” value [1, 11] was “discrete improvement of walking”, the “Symptomatology (patient report)” value ([1]; ALS Patient 3, after one month) was “did not report improvement of symptomatology” and the Symptomatology after suspension ([1]; ALS Patient 4, 10 days after therapy was suspended) was “worsening of symptomatology”. For the same compound, the “Symptomatology (patient report)” value ([1]; ALS Patient 4, after about one month) was “subjective improvement of dysphagia and less hypersalivation”, the GSL levels [2] was “trend towards decreased GSL levels” and the “Effect of temporary suspension of the medication” value ([3]; DBN Patient 1) was “considerable deterioration”. The Side-effects ([3]; DBN Patient 1, 5 gram per day) was “no side-effects resulted”, the “Benefit (patient report)” value ([3]; DBN Patient 1, after 10 days, 3 g then 5 gram per day) was “significant benefit” and the “Nystagmus (clinical examination)” value [3, 12] was “reduction of the nystagmus”. For the same compound, the “Postural sway (posturography)” value [3, 12] was “reduction of postural sway”, the “Oscillopsia / reading and writing” value ([3]; DBN Patient 1, approximately 14 weeks after starting) was “reduced oscillopsia” and the Gait ([3]; DBN Patient 2, 3 g/day then 5 g/day) was “improvement of gait”. The “Downbeat nystagmus (video-oculography)” value ([3]; DBN Patient 2, on treatment) was “improved”, the “APP-CTF levels relative to total APP, cerebellum” value [4] was “lowering of APP-CTFs” and the Subjective measurements ([5]; 1 month on medication) was “more energy, was more agile and interactive”. For the same compound, the SARA ([5]; 1 month on medication, baseline 6.5/40) was 2/40, the “Mean timed 8-meter-walking test” value ([5]; 1 month on medication, baseline 6.5 sec) was 4.4 s and the Stance up-and-go test ([5]; 1 month on medication, baseline 25.4 sec) was 21.2 s. The “Maximal distance to walk” value ([5]; 1 month, 2 g/1.5 g/1.5 g per day, baseline 1 km) was 1.5 km, the Side effects ([5]; 2 g/1.5 g/1.5 g per day dosage regimen) was “Sleepiness” and the Frequency of falls ([5]; lower dosage 1 g/1 g/1 g for over 4 months) was 0-1 /month. For the same compound, the Falls ([5]; therapy period of 1 month) was “did not record any falls”, the “Lifespan of the Sandhoff mouse” value [6] was “statistically significant increase in the lifespan” and the “Gait properties vs untreated littermates” value [7] was “no significant difference in gait properties”. For the same compound, the “Gait properties vs untreated littermates” value [8] was “significantly improved gait”, the “Change in ASIS during treatment relative to baseline” value [9] was “all ten patients showed a reduction in ASIS” and the “Change in overall CSS over the course of the experiment” value [9] was “none of the ten patients showed an overall increase in CSS”.
